Test results from PubChem BioAssay AID2060899 (Molecular Pharmacology Branch, DTP, NCI, 2025).

Tested on: 565726-208-R1-J5-PDC complex spheroids, growth inhibition
Test: Anticancer human tumor 565726-208-R1-J5-PDC patient-derived pancreatic adenocarcinoma cell line growth inhibition [RAS]
Conditions: for viability, T/C: stronger effect = lower value
In short: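 Agents were tested in combination matrices in half-log decrements from a top concentration at or near clinical Cmax (10 microM if undetermined). Targets were multi-cell spheroids of tumour lines plus HUVEC and MSC stromal cells.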

[1] = curve of first compound, second compound 0.0316 µM
[2] = curve of first compound, second compound 0.1 µM
[3] = curve of first compound, second compound 0.316 µM
[4] = curve of first compound, second compound 1 µM
[5] = curve of first compound, second compound 3.16 µM
[6] = curve of first compound, second compound 10 µM
[7] = second compound 0.0316 µM, first compound 0.0316 µM
[8] = second compound 0.0316 µM, first compound 0.1 µM
[9] = second compound 0.0316 µM, first compound 0.316 µM
[10] = second compound 0.0316 µM, first compound 1 µM
[11] = second compound 0.1 µM, first compound 0.0316 µM
[12] = second compound 0.1 µM, first compound 0.1 µM
[13] = second compound 0.1 µM, first compound 0.316 µM
[14] = second compound 0.1 µM, first compound 1 µM
[15] = second compound 0.316 µM, first compound 0.0316 µM
[16] = second compound 0.316 µM, first compound 0.1 µM
[17] = second compound 0.316 µM, first compound 0.316 µM
[18] = second compound 0.316 µM, first compound 1 µM
[19] = second compound 1 µM, first compound 0.0316 µM
[20] = second compound 1 µM, first compound 0.1 µM
[21] = second compound 1 µM, first compound 0.316 µM
[22] = second compound 1 µM, first compound 1 µM
[23] = second compound 3.16 µM, first compound 0.0316 µM
[24] = second compound 3.16 µM, first compound 0.1 µM
[25] = second compound 3.16 µM, first compound 0.316 µM
[26] = second compound 3.16 µM, first compound 1 µM
[27] = second compound 10 µM, first compound 0.0316 µM
[28] = second compound 10 µM, first compound 0.1 µM
[29] = second compound 10 µM, first compound 0.316 µM
[30] = second compound 10 µM, first compound 1 µM
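Further: spheroids exposed to compounds for seven days before readout.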
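Wherever viability, T/C is given: 100% = DMSO vehicle control viability.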

CC(C)NCC(C(=O)N1CCN(c2ncnc3c2C(C)CC3O)CC1)c1ccc(Cl)cc1 (stereo not drawn)
viability, T/C (compound 0.0316 µM): 97.9% [middle of 4 runs]
viability, T/C (compound 0.1 µM): 100% [middle of 4 runs]
viability, T/C (compound 1 µM): 88.7% [middle of 4 runs]
IC50 (curve of compound): > 10000 nM

CC1(C)CCC(Nc2ncc(C(F)(F)F)c(-c3c[nH]c4c(P(C)(C)=O)c(C#N)ccc34)n2)CN1 (stereo not drawn) + CCn1c(-c2cccnc2C(C)OC)c2c3cc(ccc31)N1CCOC(CC(NC(=O)C(C(C)C)N(C)C(=O)C3(F)CCN(C(=O)C#CC(C)(C)N(C)C)CC3)C(=O)N3CCCC(N3)C(=O)OCC(C)(C)C2)C1
IC50 (curve of first compound, second compound 0.000949 µM): 3.9 nM
IC50 (curve of first compound, second compound 0.003 µM): 4.09 nM
IC50 (curve of first compound, second compound 0.00949 µM): 3.98 nM
IC50 (curve of first compound, second compound 0.03 µM): 3.25 nM
IC50 (curve of first compound, second compound 0.0949 µM): 2.54 nM
IC50 (curve of first compound, second compound 0.3 µM): 1.09 nM
viability, T/C (second compound 0.000949 µM, first compound 0.000949 µM): 86%
viability, T/C (second compound 0.000949 µM, first compound 0.003 µM): 54%
viability, T/C (second compound 0.000949 µM, first compound 0.00949 µM): 37.6%
viability, T/C (second compound 0.000949 µM, first compound 0.03 µM): 32.1%
viability, T/C (second compound 0.000949 µM, first compound 0.0949 µM): 32.2%
viability, T/C (second compound 0.000949 µM, first compound 0.3 µM): 29.5%
viability, T/C (second compound 0.003 µM, first compound 0.000949 µM): 89%
viability, T/C (second compound 0.003 µM, first compound 0.003 µM): 55%
viability, T/C (second compound 0.003 µM, first compound 0.00949 µM): 36.5%
viability, T/C (second compound 0.003 µM, first compound 0.03 µM): 29.2%
viability, T/C (second compound 0.003 µM, first compound 0.0949 µM): 29.5%
viability, T/C (second compound 0.003 µM, first compound 0.3 µM): 28.7%
viability, T/C (second compound 0.00949 µM, first compound 0.000949 µM): 83.2%
viability, T/C (second compound 0.00949 µM, first compound 0.003 µM): 55.4%
viability, T/C (second compound 0.00949 µM, first compound 0.00949 µM): 33.5%
viability, T/C (second compound 0.00949 µM, first compound 0.03 µM): 27.9%
viability, T/C (second compound 0.00949 µM, first compound 0.0949 µM): 26.9%
viability, T/C (second compound 0.00949 µM, first compound 0.3 µM): 27.6%
viability, T/C (second compound 0.03 µM, first compound 0.000949 µM): 76%
viability, T/C (second compound 0.03 µM, first compound 0.003 µM): 50.9%
viability, T/C (second compound 0.03 µM, first compound 0.00949 µM): 36.4%
viability, T/C (second compound 0.03 µM, first compound 0.03 µM): 29%
viability, T/C (second compound 0.03 µM, first compound 0.0949 µM): 28.6%
viability, T/C (second compound 0.03 µM, first compound 0.3 µM): 29.3%
viability, T/C (second compound 0.0949 µM, first compound 0.000949 µM): 69.3%
viability, T/C (second compound 0.0949 µM, first compound 0.003 µM): 46.7%
viability, T/C (second compound 0.0949 µM, first compound 0.00949 µM): 30%
viability, T/C (second compound 0.0949 µM, first compound 0.03 µM): 26.9%
viability, T/C (second compound 0.0949 µM, first compound 0.0949 µM): 29%
viability, T/C (second compound 0.0949 µM, first compound 0.3 µM): 32.9%
viability, T/C (second compound 0.3 µM, first compound 0.000949 µM): 52%
viability, T/C (second compound 0.3 µM, first compound 0.003 µM): 35.6%
viability, T/C (second compound 0.3 µM, first compound 0.00949 µM): 27.4%
viability, T/C (second compound 0.3 µM, first compound 0.03 µM): 26.7%
viability, T/C (second compound 0.3 µM, first compound 0.0949 µM): 27.8%
viability, T/C (second compound 0.3 µM, first compound 0.3 µM): 26.5%

Nc1ccn(C2OC(CO)C(O)C2(F)F)c(=O)n1 (stereo not drawn) + C#Cc1c(F)ccc2cc(O)cc(-c3ncc4c(N5CC6CCC(C5)N6)nc(OCC56CCCN5CC(F)C6)nc4c3F)c12
IC50 [1]: 92.8 nM
IC50 [2]: 73.8 nM
IC50 [3]: 273 nM
IC50 [4]: 63.3 nM
IC50 [5]: 37.5 nM
IC50 [6]: 30.3 nM
viability, T/C (second compound 0.0316 µM, first compound 0.00316 µM): 101%
viability, T/C (second compound 0.0316 µM, first compound 0.01 µM): 123%
viability, T/C [7]: 80.8%
viability, T/C [8]: 53.5%
viability, T/C [9]: 46.7%
viability, T/C [10]: 43.4%
viability, T/C (second compound 0.1 µM, first compound 0.00316 µM): 112%
viability, T/C (second compound 0.1 µM, first compound 0.01 µM): 130%
viability, T/C [11]: 64%
viability, T/C [12]: 54.6%
viability, T/C [13]: 42.8%
viability, T/C [14]: 37.5%
viability, T/C (second compound 0.316 µM, first compound 0.00316 µM): 122%
viability, T/C (second compound 0.316 µM, first compound 0.01 µM): 133%
viability, T/C [15]: 54.9%
viability, T/C [16]: 61.1%
viability, T/C [17]: 46.1%
viability, T/C [18]: 41.1%
viability, T/C (second compound 1 µM, first compound 0.00316 µM): 116%
viability, T/C (second compound 1 µM, first compound 0.01 µM): 110%
viability, T/C [19]: 58.2%
viability, T/C [20]: 46%
viability, T/C [21]: 47.8%
viability, T/C [22]: 39%
viability, T/C (second compound 3.16 µM, first compound 0.00316 µM): 117%
viability, T/C (second compound 3.16 µM, first compound 0.01 µM): 99.2%
viability, T/C [23]: 51.1%
viability, T/C [24]: 43.5%
viability, T/C [25]: 41%
viability, T/C [26]: 45.7%
viability, T/C (second compound 10 µM, first compound 0.00316 µM): 82%
viability, T/C (second compound 10 µM, first compound 0.01 µM): 85.8%
viability, T/C [27]: 48.6%
viability, T/C [28]: 47%
viability, T/C [29]: 48.8%
viability, T/C [30]: 44.9%

CC(C)NCC(C(=O)N1CCN(c2ncnc3c2C(C)CC3O)CC1)c1ccc(Cl)cc1 (stereo not drawn) + C#Cc1c(F)ccc2cc(O)cc(-c3ncc4c(N5CC6CCC(C5)N6)nc(OCC56CCCN5CC(F)C6)nc4c3F)c12
IC50 [1]: > 10000 nM
IC50 [2]: > 10000 nM
IC50 [3]: > 10000 nM
IC50 [4]: > 10000 nM
IC50 [5]: 473 nM
IC50 [6]: 1210 nM
viability, T/C [7]: 85.7%
viability, T/C [8]: 129%
viability, T/C [9]: 96%
viability, T/C [10]: 76%
viability, T/C (second compound 0.0316 µM, first compound 3.16 µM): 80.2%
viability, T/C (second compound 0.0316 µM, first compound 10 µM): 91.4%
viability, T/C [11]: 108%
viability, T/C [12]: 114%
viability, T/C [13]: 80.3%
viability, T/C [14]: 77.3%
viability, T/C (second compound 0.1 µM, first compound 3.16 µM): 88%
viability, T/C (second compound 0.1 µM, first compound 10 µM): 86%
viability, T/C [15]: 104%
viability, T/C [16]: 117%
viability, T/C [17]: 78.1%
viability, T/C [18]: 84.9%
viability, T/C (second compound 0.316 µM, first compound 3.16 µM): 71.9%
viability, T/C (second compound 0.316 µM, first compound 10 µM): 80.5%
viability, T/C [19]: 109%
viability, T/C [20]: 125%
viability, T/C [21]: 76.5%
viability, T/C [22]: 59.5%
viability, T/C (second compound 1 µM, first compound 3.16 µM): 63.4%
viability, T/C (second compound 1 µM, first compound 10 µM): 52.5%
viability, T/C [23]: 101%
viability, T/C [24]: 83.8%
viability, T/C [25]: 50.7%
viability, T/C [26]: 48.4%
viability, T/C (second compound 3.16 µM, first compound 3.16 µM): 38.5%
viability, T/C (second compound 3.16 µM, first compound 10 µM): 34.7%
viability, T/C [27]: 67.8%
viability, T/C [28]: 76.6%
viability, T/C [29]: 57.6%
viability, T/C [30]: 47.1%
viability, T/C (second compound 10 µM, first compound 3.16 µM): 44.5%
viability, T/C (second compound 10 µM, first compound 10 µM): 21.1%

O=C(c1ccc(F)c(F)c1Nc1ccc(I)cc1F)N1CC(O)([C@@H]2CCCCN2)C1
viability, T/C (compound 0.0316 µM): 69.5% [middle of 4 runs]
viability, T/C (compound 0.1 µM): 62.4% [middle of 4 runs]
viability, T/C (compound 1 µM): 33.5% [middle of 4 runs]
